Assay results: patent publication US6706291B1, “Poultry producibility improver and poultry producibility improvement method” (Taiyo Kagaku Co., Ltd., priority 2001, dated 2004)

Key:
[1] = test system: White Cornish edible chickens; assay: Test Example 3: K value, TBA value, POV value of chicken meat after storage; assay type: in vivo; details: for K Value of Chicken Meat after 10 Days of Storage: storage at 4° C.
Excerpt: In the present invention, the expression “keeping freshness of chicken meat” refers to suppression of an increase during storage in a numerical value, such as K value (ratio of inosine and hypoxanthine content to the sum of ATP, ADP, AMP, IMP, inosine and hypoxanthine contents in chicken meat as expressed in percentage), VBN value (a total amount of volatile basic substances, such as ammonia and trimethylamine, in chicken meat), TMA value (trimethylamine content in chicken meat) and polyamine content (total amount of decarboxylated products of free amino acids, such as putrescine, cadaverine, agmatine, histamine, tyramine, tryptamine and spermidine, in chicken meat), metmyoglobin formation ratio (ratio of myoglobin oxidized to metmyoglobin in muscular tissue of chicken meat), TBA value (ratio of fatty acids oxidized to fatty acids in chicken meat), POV value (peroxide value: ratio of oil or fat oxidized in chicken meat), and bacterial cell count (number of bacterial cells in chicken meat). In the present invention, it is preferable that at least one selected from the group consisting of K value, TBA value and POV value is used as an index for keeping freshness of chicken meat. Because the K value is most generally used as an index for freshness, it is more preferable to use the K value as an index for keeping freshness of chicken meat. White Cornish edible chickens were bred for 7 weeks from newly-hatched chickens. The hatched chickens were divided into 17 groups, the groups AA to QQ of 200 chickens per group. […] The edible chickens were fed with a commercially available formula feed for edible chickens, and allowed to take feed and water ad libitum. […] The liveability is shown in Table 17 and the weekly body weight gain in Table 18, respectively. […] Furthermore, changes in the TBA value and in the POV value of each of the breast meat, the leg meat and the chicken fat after storage were determined in the same manner. The cholesterol content is shown in Table 19, the change in the K value after storage in Table 20, the change in the TBA value after storage in Table 21, and the change in the POV value after storage in Table 22, respectively.

[2] = test system: White Cornish edible chickens; assay: Test Example 3: cholesterol content of breast meat, leg meat and chicken fat; assay type: in vivo
Excerpt: (§1) White Cornish edible chickens were bred for 7 weeks from newly-hatched chickens. The hatched chickens were divided into 17 groups, the groups AA to QQ of 200 chickens per group. […] The edible chickens were fed with a commercially available formula feed for edible chickens, and allowed to take feed and water ad libitum. […] The liveability is shown in Table 17 and the weekly body weight gain in Table 18, respectively. […] Furthermore, changes in the TBA value and in the POV value of each of the breast meat, the leg meat and the chicken fat after storage were determined in the same manner. The cholesterol content is shown in Table 19, the change in the K value after storage in Table 20, the change in the TBA value after storage in Table 21, and the change in the POV value after storage in Table 22, respectively.

[3] = test system: eggs of Isabrown laying hens; assay: Test Example 2: DHA, EPA, vitamin E content and Haugh unit of eggs during storage; assay type: in vivo, chicken; details: for EPA Content / Haugh Unit / Vitamin E Content / DHA Content: eggs after 4 months; for DHA Content: feed with fish oil and vitamin E
Procedure: Isabrown laying hens were bred in poultry houses of the windless vertical 2-shelf cage type. Seventeen poultry houses a to q (10,000 hens/poultry house) were set, and a field test concerning suppression of a decrease in highly unsaturated fatty acid content during storage of eggs laid by laying hens was carried out. […] In addition, the laying hens were fed with a feed prepared by adding 2 kg of a fish oil and 10 g of vitamin E to 100 kg of a cormnercially available feed for laying hens. In addition, the laying hens were allowed to take water ad libitum.
After 4 months from initiation of the test, 20 eggs each were collected from each poultry house. DHA content and EPA content of the eggs, as indices for highly unsaturated fatty acid, were determined on the day of collection for 10 of the eggs, and after 2 weeks of storage at 4° C. for the remaining 10 eggs, respectively. Vitamin E content and Haugh unit were also determined. A change in the DHA content, a change in the EPA content, a change in the vitamin E content, and a change in the Haugh unit are shown in Tables 12, 13, 14 and 15, respectively.

[4] = test system: eggs of White Leghorn laying hens; assay: Test Example 1: Haugh unit and vitamin E content of eggs during storage; assay type: in vivo, chicken; details: for Haugh Unit / Vitamin E Content: eggs collected after 4 months
Procedure: Here, the term “Haugh unit” mentioned above refers to an index showing an extent of deterioration of thick albumen and is defined as the numeral calculated using the equation: […]
wherein H is a height (mm) of thick albumen; and W is an egg weight (g).
Furthermore, after 4 months from initiation of the test, 20 eggs each were collected from each poultry house. Haugh unit and vitamin E content were determined on the day of collection for 10 of the eggs, and after 2 weeks of storage at 4° C. for the remaining 10 eggs, respectively.

[5] = test system: White Leghorn laying hens; assay: Test Example 1: field test on producibility of laying hens (liveability, egg production indices); assay type: in vivo, chicken; details: for Liveability: additive in feed entire breeding period; for Number of Eggs Produced / Weight of Produced Eggs: 30,000 hens/poultry house
Procedure: White Leghorn laying hens at 121 days of age were housed in poultry houses of the windless vertical 6-shelf cage type and bred therein for 1 year. Eighteen poultry houses A to R (30,000 hens/poultry house) were set, and a field test concerning improvement in producibility by laying hens was carried out.
The laying hens were fed with a commercially available formula feed for laying hens, and allowed to take water ad libitum.
As indices for the producibility, there were obtained a liveability, a rate of laying, each egg weight and a weight of eggs produced per day, each item being at 4 months after initiation of the test, and a total number of eggs produced and a total egg weight during the 4-month period from initiation of the test. The same items were also determined at 8 and 12 months after initiation of the test. […] In the following tables, the indications “4M, 8M, 12M” stand for 4 months, 8 months, and 12 months after initiation of the test, respectively.

[6] = test system: White Cornish edible chickens; assay: Test Example 3: liveability and weekly body weight gain of edible chickens; assay type: in vivo, chicken
Excerpt: as §1

[7] = After 2 Weeks of Storage at 4° C.
[8] = Immediately After Egg Production

Substance: (−)-epigallocatechin gallate
- Change in POV Value after 10 Days Storage ([1]; Breast Meat): 1.52
- Change in TBA Value after 10 Days Storage ([1]; Breast Meat): 0.44
- K Value of Chicken Meat after 10 Days of Storage ([1]; Breast Meat): 55.3
- Change in POV Value after 10 Days Storage ([1]; Chicken Fat): 1.80
- Change in TBA Value after 10 Days Storage ([1]; Chicken Fat): 0.42
- Change in POV Value after 10 Days Storage ([1]; Leg Meat): 1.53
- Change in TBA Value after 10 Days Storage ([1]; Leg Meat): 0.40
- K Value of Chicken Meat after 10 Days of Storage ([1]; Leg Meat): 55.4
- Cholesterol Content ([2]; Breast Meat): 72.0 mg based on 100 g of chicken meat or chicken fat
- Cholesterol Content ([2]; Chicken Fat): 227.6 mg based on 100 g of chicken meat or chicken fat
- Cholesterol Content ([2]; Leg Meat): 86.0 mg based on 100 g of chicken meat or chicken fat
- Effect on decrease in DHA, EPA, vitamin E content and Haugh unit during egg storage, in words ([3]; 2 weeks of storage at 4° C.): no effect was found
- EPA Content [3, 7]: 84.0 mg based on 100 g of egg yolk solution
- Haugh Unit [3, 7]: 80.9
- Vitamin E Content [3, 7]: 1.7 mg based on 100 g of egg yolk solution
- EPA Content [3, 8]: 103.8 mg based on 100 g of egg yolk solution
- Haugh Unit [3, 8]: 96.5
- Vitamin E Content [3, 8]: 3.0 mg based on 100 g of egg yolk solution
- DHA Content [3, 7]: 1,344.0 mg based on 100 g of egg yolk solution
- DHA Content [3, 8]: 1,493.1 mg based on 100 g of egg yolk solution
- Effect on decrease in Haugh unit and vitamin E content during egg storage, in words ([4]; 2 weeks of storage at 4° C.): no effect was found
- Haugh Unit [4, 7]: 79.9
- Vitamin E Content [4, 7]: 2.0 mg based on 100 g of egg yolk solution
- Haugh Unit [4, 8]: 98.0
- Vitamin E Content [4, 8]: 3.1 mg based on 100 g of egg yolk solution
- Each Egg Weight ([5]; 4M after initiation of test): 58.6 g
- Rate of Egg Production ([5]; 4M after initiation of test): 92.3%
- Weight of Eggs Produced Per Day ([5]; 4M after initiation of test): 53.97 g
- Liveability ([5]; 4M after initiation of test): 98.90%
- Number of Eggs Produced ([5]; 4M): 295,589 ct
- Weight of Produced Eggs ([5]; 4M): 17,321.5 kg
- Each Egg Weight ([5]; 8M after initiation of test): 61.7 g
- Rate of Egg Production ([5]; 8M after initiation of test): 82.9%
- Weight of Eggs Produced Per Day ([5]; 8M after initiation of test): 51.05 g
- Liveability ([5]; 8M after initiation of test): 97.81%
- Number of Eggs Produced ([5]; 8M): 714,941 ct
- Weight of Produced Eggs ([5]; 8M): 44,111.9 kg
- Each Egg Weight ([5]; 12M after initiation of test): 63.1 g
- Rate of Egg Production ([5]; 12M after initiation of test): 72.9%
- Weight of Eggs Produced Per Day ([5]; 12M after initiation of test): 47.68 g
- Liveability ([5]; 12M after initiation of test): 95.02%
- Number of Eggs Produced ([5]; 12M): 1,054,111 ct
- Weight of Produced Eggs ([5]; 12M): 66,514.4 kg
- Effect on producibility indices (liveability, rate of egg production, egg weight, eggs produced), in words ([5]; compared with poultry house Q given only an ordinary feed / houses H to R): an effect of addition of these additives was not found
- Weekly Body Weight Gain ([6]; after breeding for 7 weeks): 462.5 g
- Liveability ([6]; after breeding for 7 weeks, 200 chickens per group): 96.33%
- Effect on liveability, weekly body weight gain, cholesterol content, K, TBA and POV values, in words ([6]; all indices of Test Example 3): no effect was found
